# Target: DGKα (Homo sapiens, UniProt P23743)
# Test: Human DGKα kinase activity inhibition assay (ADP-Glo)
# Format: biochemical
# Parameters: made in house; host or cells: Sf9 insect cells, baculovirus
# Conditions: in vitro, C-terminally FLAG-tagged recombinant full-length human DGKα, 1,2-dioleoyl-sn-glycerol substrate, ADP-Glo readout
# Description: Human DGKα Kinase Activity Inhibition Assay. Human DGKα inhibitory activity of compounds of the present invention was quantified employing the human DGKα kinase activity assay as described in the following paragraphs. In essence, the enzyme activity was measured by quantification of the adenosine-di-phosphate (ADP) generated as a co-product of the enzyme reaction via the “ADP-Glo™ Kinase Assay” kit from the company Promega. This detection system works as follows: In a first step the ATP not consumed in the kinase reaction is quantitatively converted to […] (“ADP-Glo-reagent”), then the adenylate cyclase is stopped and the ADP generated in the kinase reaction converted to ATP, which subsequently generates in a luciferase-based reaction a glow-luminescence signal (“Kinase Detection Reagent”). C-terminally FLAG-tagged, recombinant full-length human DGKα (expressed in baculovirus infected insect cells, purified using anti-Flag pulldown and size exclusion chromatography as described below, DGKa_hu_1) was used as enzyme. As substrate for the kinase 1,2-dioleoyl-sn-glycerol, reconstituted in octyl-β-D-glucopyranoside micelles, was used. For the preparation of the micelles, 1 volume of a 16.1 mM solution of 1,2-dioleoyl-sn-glycerol (Avanti, Cat. #08001-25G) in chloroform was slowly evaporated using a nitrogen stream. Subsequently, 22.55 volumes of a 510 mM solution of octyl-β-D-glucopyranoside (Sigma-Aldrich, Cat. #08001-10G) in 50 mM MOPS buffer (pH 7.4) were added, and the mixture was sonicated in an ultrasonic bath for 20 s. Then 35 volumes of 50 mM MOPS buffer (pH 7.4) were added to yield a solution of 0.28 mM 1,2 dioleoyl-sn-glycerol and 200 mM octyl-β-D-glucopyranoside, which was aliquoted, flash-frozen in liquid nitrogen, and stored at −20° C. until use. For each experiment, a fresh aliquot was quickly thawed and diluted 24-fold with aqueous assay buffer (described below) containing 95.7 μM adenosine triphosphate (Promega) to yield a 1.67-fold concentrated substrate solution. For the assay 50 nl of a 100-fold concentrated solution of the test compound in dimethyl sulfoxide (DMSO, Sigma) was pipetted into either a white 1536-well or a white low-volume 384-well microtiter plate (both Greiner Bio-One, Frickenhausen, Germany). […] The concentration of DGK a was adjusted depending of the activity of the enzyme lot and was chosen appropriate to have the assay in the linear range, a typical concentration is about 0.1 nM. The reaction was stopped by the addition of 2.5 μl of “ADP-Glo-reagent” (1 to 1.5 diluted with water) and the resulting mixture was incubated at 22° C. for 1 h to convert the ATP no t consumed in the kinase reaction completely to […]. […] The amount of emitted light was taken as a measure for the amount of ADP generated and thereby for the activity of the DGKα.
# Chain of DGKα (P23743 with tags, fused parts or gaps): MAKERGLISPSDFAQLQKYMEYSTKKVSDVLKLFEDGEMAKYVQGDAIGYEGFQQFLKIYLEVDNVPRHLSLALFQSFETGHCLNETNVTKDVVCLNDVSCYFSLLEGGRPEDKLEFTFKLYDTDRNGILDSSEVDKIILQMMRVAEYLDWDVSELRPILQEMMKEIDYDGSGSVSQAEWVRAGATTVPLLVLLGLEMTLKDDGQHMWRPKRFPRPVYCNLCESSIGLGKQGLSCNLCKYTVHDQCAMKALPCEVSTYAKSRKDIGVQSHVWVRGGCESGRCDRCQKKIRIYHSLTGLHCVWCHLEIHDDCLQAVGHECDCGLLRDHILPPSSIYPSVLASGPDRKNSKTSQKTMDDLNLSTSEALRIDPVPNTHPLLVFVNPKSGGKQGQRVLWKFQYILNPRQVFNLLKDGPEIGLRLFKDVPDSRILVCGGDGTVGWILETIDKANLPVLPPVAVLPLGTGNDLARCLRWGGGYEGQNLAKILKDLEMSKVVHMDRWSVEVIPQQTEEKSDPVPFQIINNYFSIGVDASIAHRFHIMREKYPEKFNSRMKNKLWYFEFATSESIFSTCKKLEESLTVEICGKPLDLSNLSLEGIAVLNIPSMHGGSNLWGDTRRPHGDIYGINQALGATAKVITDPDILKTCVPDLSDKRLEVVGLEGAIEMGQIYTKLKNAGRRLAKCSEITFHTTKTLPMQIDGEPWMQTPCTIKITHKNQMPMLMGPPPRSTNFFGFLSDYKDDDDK
row,Structure (SMILES),IC50
1,"Cn1c(=O)c(C#N)c(N2CCC3(CN(c4ccc(F)cc4)C3)C2)c2ccccc21 [Example 4, 4-[2-(4-fluorophenyl)-2,6-diazaspiro[3.4]octan-6-yl]-1-methyl-2-oxo-1,2-dihydroquinoline-3-carbonitrile]",35 nM
2,"COc1ccc(N2CC3(CCN(c4c(C#N)c(=O)n(C)c5ccccc45)C3)C2)cc1 [Example 5, 4-[2-(4-methoxyphenyl)-2,6-diazaspiro[3.4]octan-6-yl]-1-methyl-2-oxo-1,2-dihydro-quinoline-3-carbonitrile]",103 nM
3,"Cn1c(=O)c(C#N)c(N2CCC3(CN(c4ccc(Cl)cc4)C3)C2)c2ccccc21 [Example 6, 4-[2-(4-chlorophenyl)-2,6-diazaspiro[3.4]octan-6-yl]-1-methyl-2-oxo-1,2-dihydroquinoline-3-carbonitrile]",10 nM
4,"Cn1c(=O)c(C#N)c(N2CC3(CCN(c4ccc(F)cc4)C3)C2)c2ccccc21 [Example 7, 4-[6-(4-fluorophenyl)-2,6-diazaspiro[3.4]octan-2-yl]-1-methyl-2-oxo-1,2-dihydroquinoline-3-carbonitrile]",63 nM
5,"COc1ccccc1N1CCC2(CCN(c3c(C#N)c(=O)n(C)c4ccccc34)CC2)C1 [Example 10, 4-[2-(2-methoxyphenyl)-2,8-diazaspiro[4.5]decan-8-yl]-1-methyl-2-oxo-1,2-dihydro-quinoline-3-carbonitrile]",18 nM
6,"CN(C)c1ccccc1N1CCC2(CCN(c3c(C#N)c(=O)n(C)c4ccccc34)CC2)C1 [Example 13, 4-{2-[2-(dimethylamino)phenyl]-2,8-diazaspiro[4.5]decan-8-yl}-1-methyl-2-oxo-1,2-dihydroquinoline-3-carbonitrile]",51 nM
7,"Cn1c(=O)c(C#N)c(N2CC3(CCCN(c4ccc(F)cc4)C3)C2)c2ccccc21 [Example 16, 4-[6-(4-fluorophenyl)-2,6-diazaspiro[3.5]nonan-2-yl]-1-methyl-2-oxo-1,2-dihydro-quinoline-3-carbonitrile]",15 nM
8,"Cn1c(=O)c(C#N)c(N2CCC3(CN(c4ccc(OC(F)(F)F)cc4)C3)C2)c2ccccc21 [Example 17, 1-methyl-2-oxo-4-{2-[4-(trifluoromethoxy)phenyl]-2,6-diazaspiro[3.4]octan-6-yl}-1,2-dihydroquinoline-3-carbonitrile]",3.5 nM
9,"Cn1c(=O)c(C#N)c(N2CC3(CCN(c4ccc(OC(F)(F)F)cc4)C3)C2)c2ccccc21 [Example 18, 1-methyl-2-oxo-4-{6-[4-(trifluoromethoxy)phenyl]-2,6-diazaspiro[3.4]octan-2-yl}-1,2-dihydroquinoline-3-carbonitrile]",19 nM
10,"COc1cccc(N2CC3(CCN(c4c(C#N)c(=O)n(C)c5ccccc45)C3)C2)c1 [Example 20, 4-[2-(3-methoxyphenyl)-2,6-diazaspiro[3.4]octan-6-yl]-1-methyl-2-oxo-1,2-dihydroquinoline-3-carbonitrile]",155 nM
11,"CN(C)c1ccc(N2CC3(CCN(c4c(C#N)c(=O)n(C)c5ccccc45)C3)C2)cc1 [Example 21, 4-{2-[4-(dimethylamino)phenyl]-2,6-diazaspiro[3.4]octan-6-yl}-1-methyl-2-oxo-1,2-dihydroquinoline-3-carbonitrile]",163 nM
12,"Cn1c(=O)c(C#N)c(N2CCC3(CN(c4ccc(N5CCCC5=O)cc4)C3)C2)c2ccccc21 [Example 22, 1-methyl-2-oxo-4-{2-[4-(2-oxopyrrolidin-1-yl)phenyl]-2,6-diazaspiro[3.4]octan-6-yl}-1,2-dihydroquinoline-3-carbonitrile]",477 nM
13,"Cn1c(=O)c(C#N)c(N2CCC3(CCN(c4ccc(F)cc4)C3)C2)c2ccccc21 (stereo not shown) [Example 23, 4-[7-(4-fluorophenyl)-2,7-diazaspiro[4.4]nonan-2-yl]-1-methyl-2-oxo-1,2-dihydro-quinoline-3-carbonitrile]",532 nM
14,"Cn1c(=O)c(C#N)c(N2CCC3(CN(c4ccc(N5CCOCC5)cc4)C3)C2)c2ccccc21 [Example 24, 1-methyl-4-{2-[4-(morpholin-4-yl)phenyl]-2,6-diazaspiro[3.4]octan-6-yl}-2-oxo-1,2-dihydroquinoline-3-carbonitrile]",1700 nM
15,"Cn1c(=O)c(C(N)=O)c(N2CCC3(CCN(c4ccc(OC(F)(F)F)cc4)C3)CC2)c2ccccc21 [Example 25, 1-methyl-2-oxo-4-{2-[4-(trifluoromethoxy)phenyl]-2,8-diazaspiro[4.5]decan-8-yl}-1,2-dihydroquinoline-3-carboxamide]",3 nM
16,"Cn1c(=O)c(C(N)=O)c(N2CCC3(CN(c4ccc(Cl)cc4)C3)C2)c2ccccc21 [Example 26, 4-[2-(4-chlorophenyl)-2,6-diazaspiro[3.4]octan-6-yl]-1-methyl-2-oxo-1,2-dihydroquinoline-3-carboxamide]",42 nM
17,"Cn1c(=O)c(C(N)=O)c(N2CCC3(CN(c4ccc(F)cc4)C3)C2)c2ccccc21 [Example 27, 4-[2-(4-fluorophenyl)-2,6-diazaspiro[3.4]octan-6-yl]-1-methyl-2-oxo-1,2-dihydroquinoline-3-carboxamide]",158 nM
18,"CN(C)c1ccc(N2CC3(CCN(c4c(C(N)=O)c(=O)n(C)c5ccccc45)C3)C2)cc1 [Example 28, 4-{2-[4-(dimethylamino)phenyl]-2,6-diazaspiro[3.4]octan-6-yl}-1-methyl-2-oxo-1,2-dihydroquinoline-3-carboxamide]",1720 nM

# Next, values leading:
row,IC50,Structure (SMILES)
1,34 nM,"Cn1c(=O)c(C#N)c(N2CCC3(CCN(c4ccccc4)C3)CC2)c2ccccc21 [Example 1, 1-methyl-2-oxo-4-(2-phenyl-2,8-diazaspiro[4.5]decan-8-yl)-1,2-dihydroquinoline-3-carbonitrile]"
2,38 nM,"Cn1c(=O)c(C#N)c(N2CCC3(CCN(c4ccc(F)cc4)C3)CC2)c2ccccc21 [Example 2, 4-[2-(4-fluorophenyl)-2,8-diazaspiro[4.5]decan-8-yl]-1-methyl-2-oxo-1,2-dihydroquinoline-3-carbonitrile]"
3,39 nM,"Cn1c(=O)c(C#N)c(N2CCC3(CCN(c4ccc(F)c(F)c4)C3)CC2)c2ccccc21 [Example 3, 4-[2-(3,4-difluorophenyl)-2,8-diazaspiro[4.5]decan-8-yl]-1-methyl-2-oxo-1,2-dihydro-quinoline-3-carbonitrile]"
4,17 nM,"Cn1c(=O)c(C#N)c(N2CCC3(CCN(c4ccc(OC(F)(F)F)cc4)C3)CC2)c2ccccc21 [Example 8, 1-methyl-2-oxo-4-{2-[4-(trifluoromethoxy)phenyl]-2,8-diazaspiro[4.5]decan-8-yl}-1,2-dihydroquinoline-3-carbonitrile]"
5,11 nM,"COc1cccc(N2CCC3(CCN(c4c(C#N)c(=O)n(C)c5ccccc45)CC3)C2)c1 [Example 9, 4-[2-(3-methoxyphenyl)-2,8-diazaspiro[4.5]decan-8-yl]-1-methyl-2-oxo-1,2-dihydro-quinoline-3-carbonitrile]"
6,28 nM,"CN(C)c1cccc(N2CCC3(CCN(c4c(C#N)c(=O)n(C)c5ccccc45)CC3)C2)c1 [Example 11, 4-{2-[3-(dimethylamino)phenyl]-2,8-diazaspiro[4.5]decan-8-yl}-1-methyl-2-oxo-1,2-dihydroquinoline-3-carbonitrile]"
7,50 nM,"Cn1c(=O)c(C#N)c(N2CCC3(CCN(c4cccc(OC(F)(F)F)c4)C3)CC2)c2ccccc21 [Example 12, 1-methyl-2-oxo-4-{2-[3-(trifluoromethoxy)phenyl]-2,8-diazaspiro[4.5]decan-8-yl}-1,2-dihydroquinoline-3-carbonitrile]"
8,61 nM,"Cn1c(=O)c(C#N)c(N2CCC3(CCN(c4ccccc4OC(F)(F)F)C3)CC2)c2ccccc21 [Example 14, 1-methyl-2-oxo-4-{2-[2-(trifluoromethoxy)phenyl]-2,8-diazaspiro[4.5]decan-8-yl}-1,2-dihydroquinoline-3-carbonitrile]"
9,91 nM,"COc1ccc(N2CCC3(CCN(c4c(C#N)c(=O)n(C)c5ccccc45)CC3)C2)cc1 [Example 15, 4-[2-(4-methoxyphenyl)-2,8-diazaspiro[4.5]decan-8-yl]-1-methyl-2-oxo-1,2-dihydro-quinoline-3-carbonitrile]"
10,122 nM,"Cn1c(=O)c(C#N)c(N2CCC3(CCN(c4ccc(OC(F)(F)F)cc4)C3)C2)c2ccccc21 (stereo not shown) [Example 19, 1-methyl-2-oxo-4-{7-[4-(trifluoromethoxy)phenyl]-2,7-diazaspiro[4.4]nonan-2-yl}-1,2-dihydroquinoline-3-carbonitrile]"

# From patent US20230064809A1, “SUBSTITUTED AMINOQUINOLONES AS DGKALPHA INHIBITORS FOR IMMUNE ACTIVATION” (Bayer Aktiengesellschaft, priority 2019, published 2023)
